Some results are limits rather than exact numbers.

One test deals with wtERBB2 (Homo sapiens (Human), UniProt P04626). Briefly: HotSpot radiometric kinase activity assay, wtERBB2. Format: biochemical. To be noted: 30 nM wtERBB2, 10 μM 33P-ATP, 20 min preincubation, 2 hours, read-out: HER2 WT IC50. Here is the method: (§1) The purpose of the wtERBB2, ERBB2-A775_G776insYVMA (ERBB2YVMA), wtEGFR biochemical assay was to evaluate the inhibition (% inhibition and IC50 values) of the small molecule inhibitors by using the “HotSpot” radiometric kinase activity assay. HotSpot assays monitor the […] of kinase substrate by the radioactive gamma phosphate of adenosine triphosphate (33P-ATP) during biochemical reactions. HotSpot assays was performed in steps upon completion of the kinase reaction: deposition of a reaction mixture aliquot onto P81 ion exchange paper, extensive washing of the aforementioned P81 paper using phosphoric acid to remove unbound radiolabeled 33P-ATP from the P81 paper, and finally visualization and quantification of the dried P81 paper utilizing a phosphoimager. […] Typical reaction solutions (10 μL final reaction volume) contained the following buffer conditions: 20 mM Hepes (pH 7.5), 10 mM MgCl2, 1 mM EGTA, 0.01% Brij35, 0.02 mg/mL BSA, 0.1 mM Na3VO4, 2 mM DTT, 1% DMSO. The assay was primed by preparing a fresh 0.2 mg/mL solution of pEY (Sigma Cat: P7244) substrate in the reaction buffer and supplementing that solution with […] of MnCl2 as substrate cofactor (Sigma Cat: M9522). The kinase of interest was then added to the solution at the appropriate concentration (30 nM wtERBB2 from, or 20 nM ERBB2YVMA, or 4 nM wtEGFR) and gently mixed prior to delivery of compound in 100% DMSO by acoustic dispensing (Beckman Echo550). Compound, Kinase, and substrate were allowed to incubate for 20 min at room temperature prior to the initiation of the reaction by addition of 33P-ATP (PerkinElmer Cat: NEG602, final conc 10 μM). […] IC50 determinations were made from a plot of kinase activity as a function of inhibitor concentration fit to the 4-parameter IC50 equation with the enzyme concentration held constant using GraphPad Prism (San Diego).

The target of a further test is wtEGFR (Homo sapiens (Human), UniProt P00533). The test is described as follows: HotSpot radiometric kinase activity assay, wtEGFR. Format: biochemical. To be noted: 4 nM wtEGFR, 10 μM 33P-ATP, 20 min preincubation, 2 hours, read-out: EGFR WT IC50. The method, then:
as §1

The next test has as its system BaF3_HER2YVMA cells. The test is described as follows: Cell growth inhibition assay, BaF3_HER2YVMA. Format: cell-based. As to conditions: 72 h, BaF3_HER2YVMA cells, 3 days treatment, CellTiterGlo 2.0; read-out: HER2-YVMA IC50 (nM), cell growth inhibition.
The next test relates to BaF3_HER2WT cells. Briefly: Cell growth inhibition assay, BaF3_HER2WT. It is filed as cell-based. As to conditions: 72 h, 3 days treatment, CellTiterGlo 2.0, read-out: HER2 WT IC50 (nM), cell growth inhibition.
For another test, the system named is BaF3_EGFRWT cells. The test is described as follows: Cell growth inhibition assay, BaF3_EGFRWT. Format: cell-based. To be noted: 72 h, 80 ng/mL recombinant human EGF, 3 days treatment, CellTiterGlo 2.0, read-out: EGFR WT IC50 (nM), cell growth inhibition.

Sequence of wtEGFR (P00533 25-1210): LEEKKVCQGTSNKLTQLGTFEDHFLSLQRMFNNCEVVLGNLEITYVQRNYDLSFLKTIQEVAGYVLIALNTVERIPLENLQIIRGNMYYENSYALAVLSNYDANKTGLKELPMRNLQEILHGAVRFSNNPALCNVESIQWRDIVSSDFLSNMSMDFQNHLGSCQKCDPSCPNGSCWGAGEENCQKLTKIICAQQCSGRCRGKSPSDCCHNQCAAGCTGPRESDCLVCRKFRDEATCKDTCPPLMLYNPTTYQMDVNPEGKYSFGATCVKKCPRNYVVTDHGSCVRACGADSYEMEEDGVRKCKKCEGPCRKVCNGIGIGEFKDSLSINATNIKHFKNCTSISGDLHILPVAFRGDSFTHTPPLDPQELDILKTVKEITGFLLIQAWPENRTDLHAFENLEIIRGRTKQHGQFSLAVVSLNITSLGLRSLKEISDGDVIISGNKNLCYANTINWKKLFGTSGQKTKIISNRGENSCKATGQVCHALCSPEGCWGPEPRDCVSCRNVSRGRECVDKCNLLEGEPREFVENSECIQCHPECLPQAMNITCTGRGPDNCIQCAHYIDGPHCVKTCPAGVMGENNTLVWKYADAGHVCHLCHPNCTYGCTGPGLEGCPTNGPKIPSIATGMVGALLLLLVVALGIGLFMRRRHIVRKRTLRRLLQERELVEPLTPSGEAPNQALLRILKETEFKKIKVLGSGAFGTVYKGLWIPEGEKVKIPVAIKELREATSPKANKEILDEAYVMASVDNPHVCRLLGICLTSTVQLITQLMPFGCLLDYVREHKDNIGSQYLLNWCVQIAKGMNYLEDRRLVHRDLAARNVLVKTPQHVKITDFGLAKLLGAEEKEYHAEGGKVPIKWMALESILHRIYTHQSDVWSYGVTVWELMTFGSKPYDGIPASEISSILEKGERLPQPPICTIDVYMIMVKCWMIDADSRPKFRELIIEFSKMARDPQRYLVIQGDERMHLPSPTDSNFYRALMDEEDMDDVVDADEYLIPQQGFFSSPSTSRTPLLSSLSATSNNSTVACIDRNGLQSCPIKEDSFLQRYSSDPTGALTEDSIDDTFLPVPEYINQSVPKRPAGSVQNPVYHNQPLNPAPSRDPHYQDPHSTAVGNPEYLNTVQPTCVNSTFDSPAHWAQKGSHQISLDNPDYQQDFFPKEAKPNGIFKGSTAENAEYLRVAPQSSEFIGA
Sequence of wtERBB2 (P04626 23-1255): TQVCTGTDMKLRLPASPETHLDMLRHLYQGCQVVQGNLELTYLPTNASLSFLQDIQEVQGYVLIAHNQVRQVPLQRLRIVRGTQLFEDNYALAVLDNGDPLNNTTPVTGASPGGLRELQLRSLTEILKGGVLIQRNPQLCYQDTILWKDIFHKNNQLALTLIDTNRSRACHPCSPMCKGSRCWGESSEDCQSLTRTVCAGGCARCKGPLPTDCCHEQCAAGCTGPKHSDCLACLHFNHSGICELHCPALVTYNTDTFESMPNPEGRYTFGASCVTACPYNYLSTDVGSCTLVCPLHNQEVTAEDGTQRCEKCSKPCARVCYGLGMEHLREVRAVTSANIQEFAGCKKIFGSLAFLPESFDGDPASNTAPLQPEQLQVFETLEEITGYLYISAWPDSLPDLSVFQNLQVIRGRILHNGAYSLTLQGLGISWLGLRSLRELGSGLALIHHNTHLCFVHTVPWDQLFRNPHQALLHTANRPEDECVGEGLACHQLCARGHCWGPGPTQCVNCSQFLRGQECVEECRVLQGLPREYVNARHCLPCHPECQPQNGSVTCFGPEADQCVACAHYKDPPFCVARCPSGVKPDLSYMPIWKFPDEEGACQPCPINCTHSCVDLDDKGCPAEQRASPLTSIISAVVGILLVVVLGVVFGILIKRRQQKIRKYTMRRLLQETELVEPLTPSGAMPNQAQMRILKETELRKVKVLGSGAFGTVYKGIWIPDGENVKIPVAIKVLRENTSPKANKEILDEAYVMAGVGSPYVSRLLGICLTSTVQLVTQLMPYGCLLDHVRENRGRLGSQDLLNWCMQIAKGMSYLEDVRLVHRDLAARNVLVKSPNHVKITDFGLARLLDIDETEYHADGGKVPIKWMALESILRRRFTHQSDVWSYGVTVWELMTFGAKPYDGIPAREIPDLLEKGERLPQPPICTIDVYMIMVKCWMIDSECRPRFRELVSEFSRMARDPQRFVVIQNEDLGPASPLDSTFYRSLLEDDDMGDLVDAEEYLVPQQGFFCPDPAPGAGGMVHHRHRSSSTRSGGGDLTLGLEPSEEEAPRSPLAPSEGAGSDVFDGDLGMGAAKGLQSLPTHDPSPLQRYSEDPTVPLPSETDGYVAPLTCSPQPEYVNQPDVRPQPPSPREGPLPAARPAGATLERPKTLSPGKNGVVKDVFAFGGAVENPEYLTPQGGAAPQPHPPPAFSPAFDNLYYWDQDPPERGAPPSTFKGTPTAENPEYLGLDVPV

With `Cc1cc(Nc2ncnn3ccc(C4CN(C(=O)/C=C/CN(C)C)C4)c23)ccc1Oc1ccn2ncnc2c1` [Example 1, (E)-1-(3-(4-((4-([1,2,4]triazolo[1,5-a]pyridin-7-yloxy)-3-methylphenyl)amino)pyrrolo[2,1-f][1,2,4]triazin-5-yl)azetidin-1-yl)-4-(dimethylamino)but-2-en-1-one], the 50% inhibitory concentration (IC50) at wtERBB2 is below 200 nM; at wtEGFR, below 200 nM; with BaF3_HER2YVMA cells, below 200 nM; in the test with BaF3_HER2WT cells, below 200 nM; in the test with BaF3_EGFRWT cells, 1500 to 5000 nM.
For the compound `C=CC(=O)N1CCC(c2ccn3ncnc(Nc4ccc(Oc5ccc6c(c5)ncn6C)c(C)c4)c23)CC1` [Example 113, 1-(4-(4-((3-methyl-4-((1-methyl-1H-benzo[d]imidazol-5-yl)oxy)phenyl)amino)pyrrolo[2,1-f][1,2,4]triazin-5-yl)piperidin-1-yl)prop-2-en-1-one], the IC50 is below 200 nM on wtERBB2; below 200 nM at wtEGFR; below 200 nM in the test on BaF3_HER2YVMA cells; below 200 nM with BaF3_HER2WT cells; 500 to 1500 nM in the test with BaF3_EGFRWT cells.
In the case of `C=CC(=O)N1CCCC(c2ccn3ncnc(Nc4ccc(Oc5ccn6ncnc6c5)c(C)c4)c23)C1` (centres unmarked) [Example 12, 1-(3-(4-((4-([1,2,4]triazolo[1,5-a]pyridin-7-yloxy)-3-methylphenyl)amino)pyrrolo[2,1-f][1,2,4]triazin-5-yl)piperidin-1-yl)prop-2-en-1-one], the IC50 at wtERBB2 is below 200 nM; on wtEGFR, below 200 nM; in the test on BaF3_HER2YVMA cells, below 200 nM; in the test on BaF3_HER2WT cells, below 200 nM; in the test on BaF3_EGFRWT cells, 1500 to 5000 nM.
`C=CC(=O)N1CC(c2ccn(-c3ccn4ncnc(Nc5ccc(Oc6ccn7ncnc7c6)c(C)c5)c34)n2)C1` [Example 10, 1-(3-(1-(4-((4-([1,2,4]triazolo[1,5-a]pyridin-7-yloxy)-3-methylphenyl)amino)pyrrolo[2,1-f][1,2,4]triazin-5-yl)-1H-pyrazol-3-yl)azetidin-1-yl)prop-2-en-1-one]: the IC50 on wtERBB2 was below 200 nM; at wtEGFR, below 200 nM; in the test on BaF3_HER2YVMA cells, 500 to 1500 nM; with BaF3_HER2WT cells, 200 to 500 nM; in the test with BaF3_EGFRWT cells, 1500 to 5000 nM.
Take `C=CC(=O)N1CCN(c2ccn3ncnc(Nc4ccc(Oc5ccn6ncnc6c5)c(C)c4)c23)CC1` [Example 6, 1-(4-(4-((4-([1,2,4]triazolo[1,5-a]pyridin-7-yloxy)-3-methylphenyl)amino)pyrrolo[2,1-f][1,2,4]triazin-5-yl)piperazin-1-yl)prop-2-en-1-one]: the IC50 on wtERBB2 is below 200 nM; on wtEGFR, below 200 nM; with BaF3_HER2YVMA cells, below 200 nM; in the test with BaF3_HER2WT cells it was below 200 nM; in the test with BaF3_EGFRWT cells, 500 to 1500 nM.
Consider `Cc1cc(Nc2ncnn3ccc(C4CN(C(=O)/C=C/CN(C)C)C4)c23)ccc1Oc1ccc2c(c1)ncn2C` [Example 101, (E)-4-(dimethylamino)-1-(3-(4-((3-methyl-4-((1-methyl-1H-benzo[d]imidazol-5-yl)oxy)phenyl)amino)pyrrolo[2,1-f][1,2,4]triazin-5-yl)azetidin-1-yl)but-2-en-1-one], for which the 50% inhibitory concentration (IC50) at wtERBB2 was below 200 nM; on wtEGFR, below 200 nM; in the test on BaF3_HER2YVMA cells, below 200 nM; with BaF3_HER2WT cells, below 200 nM; with BaF3_EGFRWT cells, 1500 to 5000 nM.
On to `C=CC(=O)N1CCCN(c2ccn3ncnc(Nc4ccc(Oc5ccn6ncnc6c5)c(C)c4)c23)CC1` [Example 8, 1-(4-(4-((4-([1,2,4]triazolo[1,5-a]pyridin-7-yloxy)-3-methylphenyl)amino)pyrrolo[2,1-f][1,2,4]triazin-5-yl)-1,4-diazepan-1-yl)prop-2-en-1-one], for which the IC50 on wtERBB2 was below 200 nM; at wtEGFR it was below 200 nM; with BaF3_HER2YVMA cells it was below 200 nM; in the test with BaF3_HER2WT cells, below 200 nM; in the test with BaF3_EGFRWT cells, 500 to 1500 nM.
`C=CC(=O)N1CC(n2cc(-c3ccn4ncnc(Nc5ccc(Oc6ccn7ncnc7c6)c(C)c5)c34)cn2)C1` [Example 2, 1-(3-(4-(4-((4-([1,2,4]triazolo[1,5-a]pyridin-7-yloxy)-3-methylphenyl)amino)pyrrolo[2,1-f][1,2,4]triazin-5-yl)-1H-pyrazol-1-yl)azetidin-1-yl)prop-2-en-1-one]: the half-inhibitory concentration (IC50) on wtERBB2 was below 200 nM; on wtEGFR it was below 200 nM; in the test with BaF3_HER2YVMA cells, below 200 nM; in the test with BaF3_HER2WT cells, below 200 nM; with BaF3_EGFRWT cells it was 1500 to 5000 nM.
In the case of `Cc1cc(Nc2ncnn3ccc(C4CN(C(=O)/C=C/CN5CCCCC5)C4)c23)ccc1Oc1ccn2ncnc2c1` [Example 94, (E)-1-(3-(4-((4-([1,2,4]triazolo[1,5-a]pyridin-7-yloxy)-3-methylphenyl)amino)pyrrolo[2,1-f][1,2,4]triazin-5-yl)azetidin-1-yl)-4-(piperidin-1-yl)but-2-en-1-one], the IC50 is below 200 nM on wtERBB2; below 200 nM at wtEGFR; below 200 nM in the test with BaF3_HER2YVMA cells; below 200 nM in the test on BaF3_HER2WT cells; 1500 to 5000 nM in the test with BaF3_EGFRWT cells.
As to `C=CC(=O)N1CCC(c2ccn3ncnc(Nc4ccc(Oc5ccn6ncnc6c5)c(C)c4)c23)CC1` [Example 7, 1-(4-(4-((4-([1,2,4]triazolo[1,5-a]pyridin-7-yloxy)-3-methylphenyl)amino)pyrrolo[2,1-f][1,2,4]triazin-5-yl)piperidin-1-yl)prop-2-en-1-one], the IC50 was below 200 nM on wtERBB2; below 200 nM on wtEGFR; below 200 nM in the test with BaF3_HER2YVMA cells; below 200 nM with BaF3_HER2WT cells; 200 to 500 nM in the test on BaF3_EGFRWT cells.

For the origin of these results see US20250276983A1, “COMPOUNDS AND METHODS FOR MODULATING HER2” (IAMBIC THERAPEUTICS, INC., priority 2022, published 2025).
